Assay results: PubChem BioAssay AID2060348 (Molecular Pharmacology Branch, DTP, NCI, 2025)
pIC50: −log10 of the molar value. Several values for one entry are separate records, joined by “and”; a condition that tells them apart may be missing. Equal entries are not always repeated.

System: 885724-159-R-J1-PDC spheroids viability
Experiment: Anticancer human tumor 885724-159-R-J1-PDC patient-derived pancreatic adenocarcinoma cell line growth inhibition [TAK]
Conditions: spheroids with HUVEC and MSC; for viability, T/C: stronger effect = lower value
Procedure, shortened: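 Drug combinations, each paired with TAK-243 or ipatasertib, were tested on multi-cell spheroids of 60% malignant cells, 25% HUVEC and 15% hMSC. Top concentrations were at or near the clinical Cmax (10 microM if undetermined), decreasing by half-log; viability is given as % test/control.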

[1] = curve of first compound, second compound 0.3 µM
[2] = curve of first compound, second compound 0.949 µM
[3] = curve of first compound, second compound 3 µM
[4] = curve of first compound, second compound 9.49 µM
[5] = curve of first compound, second compound 30 µM
[6] = second compound 0.3 µM, first compound 0.316 µM
[7] = second compound 0.3 µM, first compound 1 µM
[8] = second compound 0.3 µM, first compound 3.16 µM
[9] = second compound 0.3 µM, first compound 10 µM
[10] = second compound 0.949 µM, first compound 0.316 µM
[11] = second compound 0.949 µM, first compound 1 µM
[12] = second compound 0.949 µM, first compound 3.16 µM
[13] = second compound 0.949 µM, first compound 10 µM
[14] = second compound 3 µM, first compound 0.316 µM
[15] = second compound 3 µM, first compound 1 µM
[16] = second compound 3 µM, first compound 3.16 µM
[17] = second compound 3 µM, first compound 10 µM
[18] = second compound 9.49 µM, first compound 0.316 µM
[19] = second compound 9.49 µM, first compound 1 µM
[20] = second compound 9.49 µM, first compound 3.16 µM
[21] = second compound 9.49 µM, first compound 10 µM
[22] = second compound 30 µM, first compound 0.316 µM
[23] = second compound 30 µM, first compound 1 µM
[24] = second compound 30 µM, first compound 3.16 µM
[25] = second compound 30 µM, first compound 10 µM
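Note: spheroids exposed to drugs for seven days.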
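Throughout, for viability, T/C: 100% = DMSO vehicle control viability.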

Compound	pIC50 [1]	pIC50 [2]	pIC50 [3]	pIC50 [4]	pIC50 [5]	viability, T/C [6] [%]	viability, T/C [7] [%]	viability, T/C [8] [%]	viability, T/C [9] [%]	viability, T/C [10] [%]	viability, T/C [11] [%]	viability, T/C [12] [%]	viability, T/C [13] [%]	viability, T/C [14] [%]	viability, T/C [15] [%]	viability, T/C [16] [%]	viability, T/C [17] [%]	viability, T/C [18] [%]	viability, T/C [19] [%]	viability, T/C [20] [%]	also measured
CCCS(=O)(=O)Nc1ccc(F)c(C(=O)c2c[nH]c3ncc(-c4ccc(Cl)cc4)cc23)c1F + CC(C)NCC(C(=O)N1CCN(c2ncnc3c2C(C)CC3O)CC1)c1ccc(Cl)cc1	< 4.00	< 4.00	4.60	5.06	> 6.50	79.3	93.8	104	89.7	66.1	78.4	76.2	74.2	66.4	71.8	67.1	63.9	58.5	58.4	58.6	viability, T/C (second compound 0.3 µM, first compound 31.6 µM): 99.7%; viability, T/C (second compound 0.3 µM, first compound 100 µM): 105%; viability, T/C (second compound 0.949 µM, first compound 31.6 µM): 34.7%; viability, T/C (second compound 0.949 µM, first compound 100 µM): 76.6%; viability, T/C (second compound 3 µM, first compound 31.6 µM): 34.2%; viability, T/C (second compound 3 µM, first compound 100 µM): 58.8%; viability, T/C [21]: 48.9%; viability, T/C (second compound 9.49 µM, first compound 31.6 µM): 13.4%; viability, T/C (second compound 9.49 µM, first compound 100 µM): 47.2%; viability, T/C [22]: 37.5%; viability, T/C [23]: 40.9%; viability, T/C [24]: 36.6%; viability, T/C [25]: 12.8%; viability, T/C (second compound 30 µM, first compound 31.6 µM): 3.55%; viability, T/C (second compound 30 µM, first compound 100 µM): 23.1%
CC(C)CC(NC(=O)C(Cc1ccccc1)NC(=O)c1cnccn1)B(O)O (configuration not stated)	–	–	–	–	–	–	–	–	–	–	–	–	–	–	–	–	–	–	–	–	viability, T/C (compound 31.6 pM): 114% and 102%; viability, T/C (compound 0.0001 µM): 105% and 100%; viability, T/C (compound 0.000316 µM): 104% and 93.8%; viability, T/C (compound 0.001 µM): 99.3% and 87.3%; viability, T/C (compound 0.00316 µM): 74.5% and 67.2%; viability, T/C (compound 0.01 µM): 1.18% and 1.87%; pIC50 (curve of compound): 8.33 and 8.38
Cc1nc(NC(=O)N2CCCC2C(N)=O)sc1-c1ccnc(C(C)(C)C(F)(F)F)c1 (configuration not stated) + CC(C)NCC(C(=O)N1CCN(c2ncnc3c2C(C)CC3O)CC1)c1ccc(Cl)cc1	6.81	> 7.50	> 7.50	> 7.50	> 7.50	47.6	41.5	27.5	19.4	35.9	27.8	20.8	14.3	28.9	21.3	19	12.7	26.9	19.4	14.3	viability, T/C (second compound 0.3 µM, first compound 0.0316 µM): 60.9%; viability, T/C (second compound 0.3 µM, first compound 0.1 µM): 46.4%; viability, T/C (second compound 0.949 µM, first compound 0.0316 µM): 47.9%; viability, T/C (second compound 0.949 µM, first compound 0.1 µM): 44.2%; viability, T/C (second compound 3 µM, first compound 0.0316 µM): 44.5%; viability, T/C (second compound 3 µM, first compound 0.1 µM): 43.5%; viability, T/C (second compound 9.49 µM, first compound 0.0316 µM): 40%; viability, T/C (second compound 9.49 µM, first compound 0.1 µM): 35.2%; viability, T/C [21]: 9.85%; viability, T/C (second compound 30 µM, first compound 0.0316 µM): 28.8%; viability, T/C (second compound 30 µM, first compound 0.1 µM): 26.4%; viability, T/C [22]: 19.6%; viability, T/C [23]: 14.3%; viability, T/C [24]: 10.7%; viability, T/C [25]: 6.4%
